Test: recombinant barcode read abundance after kanamycin selection (control-corrected) (log10(CPM+1)); higher = more efficient recombination; sequences stand for … in AGTGCAGAGAAAATCGGCCAGTTTTCTCTGCCTGCAGTCCGCATGCCGT…AGATTTATGCAGCGGACTGCCTTTCTCCCAAAGTGATAAACCGGACAGTATCATGGACCGGTTTTCCCGGTAATCCGTATTTGCAAGGTTGGTTTCACT; site = the 11-nt target
How it was run: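 Pooled oligos, each joining a target to an IS621 bridge RNA target-binding loop, were cloned and co-electroporated with a donor plasmid into E. coli. Selective plates carried chloramphenicol/ampicillin/kanamycin and 0.1 mM IPTG, while chloramphenicol/ampicillin LB agar served as control, with two replicates of each. Recombination efficiency rests on averaged, control-corrected counts per million of barcodes at recombinant junctions, shown as log10(CPM+1).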
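Note: IS621 recombinase and bridge RNA in Escherichia coli cells.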

With “CGTTCGACTTGGGTTCTAACCTGTTGCCT (site CGTTCTACTAG)” the “recombinant barcode read abundance (log10)” value was 0.0286.
For “CGTTCTCCTTGGGTTCTAACCTGTTGCCT (site AGTTCTCCTAG)”, the “recombinant barcode read abundance (log10)” value was 0.0567.
For “CGTTCTCCTTGGGTTCTAACCTGTTGCCT (site CGTTCTCCTAG)”, the “recombinant barcode read abundance (log10)” value was 0.0201.
For “CGTTCTCCTTGGGTTCTAACCTGTTGCCT (site GGTTCTCCTAG)”, the “recombinant barcode read abundance (log10)” value was 0.0547.
With “CGTTCTCCTTGGGTTCTAACCTGTTGCCT (site TGTTCTCCTAG)” the “recombinant barcode read abundance (log10)” value was 0.121.
For “CGTTGCCCTTGGGTTCTAACCTGTTGCCT (site CATTGCCCTAG)”, the “recombinant barcode read abundance (log10)” value was 0.19.
In the case of “CGTTGCCCTTGGGTTCTAACCTGTTGCCT (site CCTTGCCCTAG)”, the “recombinant barcode read abundance (log10)” value is reported as 0.0881.
With “CGTTGCCCTTGGGTTCTAACCTGTTGCCT (site CGTTGCCCTAG)” the “recombinant barcode read abundance (log10)” value was 0.166.
For “CGTTGCCCTTGGGTTCTAACCTGTTGCCT (site CTTTGCCCTAG)”, the “recombinant barcode read abundance (log10)” value was 0.468.
In the case of “CGTTGGTCTTGGGTTCTAACCTGTTGCGA (site CGTTGGTCTTC)”, the “recombinant barcode read abundance (log10)” value is reported as 0.759.
With “CGTTGGTCTTGGGTTCTAACCTGTTGCGA (site TTGCATCCTCT)” the “recombinant barcode read abundance (log10)” value was 0.0731.
In the case of “CGTTTCCCTTGGGTTCTAACCTGTTGCAG (site CGTTTCCCTAC)”, the “recombinant barcode read abundance (log10)” value is reported as 0.152.
For “CGTTTCCCTTGGGTTCTAACCTGTTGCAG (site CGTTTCCCTCT)”, the “recombinant barcode read abundance (log10)” value was 0.427.
With “CGTTTCCCTTGGGTTCTAACCTGTTGCGT (site CGTTTCCCTAC)” the “recombinant barcode read abundance (log10)” value was 1.04.
With “CGTTTCCCTTGGGTTCTAACCTGTTGCGT (site CGTTTCCCTCT)” the “recombinant barcode read abundance (log10)” value was 0.0161.
For “CTAAAACCTTGGGTTCTAACCTGTTGCCT (site ATAAAACCTAG)”, the “recombinant barcode read abundance (log10)” value was 0.0167.
For “CTAAAACCTTGGGTTCTAACCTGTTGCCT (site CTAAAACCTAG)”, the “recombinant barcode read abundance (log10)” value was 1.
With “CTAAAACCTTGGGTTCTAACCTGTTGCCT (site GTAAAACCTAG)” the “recombinant barcode read abundance (log10)” value was 0.0969.
In the case of “CTAAAACCTTGGGTTCTAACCTGTTGCCT (site TTAAAACCTAG)”, the “recombinant barcode read abundance (log10)” value is reported as 0.218.
For “CTAAAGTCTTGGGTTCTAACCTGTTGCCA (site CTAAAGTCTTG)”, the “recombinant barcode read abundance (log10)” value was 0.399.
With “CTAAAGTCTTGGGTTCTAACCTGTTGCCA (site GTAAAGTCTTG)” the “recombinant barcode read abundance (log10)” value was 0.0268.
With “CTAAATACTTGGGTTCTAACCTGTTGCTA (site CTAAATACTAG)” the “recombinant barcode read abundance (log10)” value was 0.835.
For “CTAAATACTTGGGTTCTAACCTGTTGCTA (site CTAAATACTTA)”, the “recombinant barcode read abundance (log10)” value was 0.126.
For “CTAACCACTTGGGTTCTAACCTGTTGCCA (site CTAACCACTTG)”, the “recombinant barcode read abundance (log10)” value was 0.329.
In the case of “CTAACCACTTGGGTTCTAACCTGTTGCCA (site CTAACTACTAG)”, the “recombinant barcode read abundance (log10)” value is reported as 0.0393.
In the case of “CTAACCTCTTGGGTTCTAACCTGTTGCTC (site CTAACCTCTAA)”, the “recombinant barcode read abundance (log10)” value is reported as 0.0754.
With “CTAACCTCTTGGGTTCTAACCTGTTGCTC (site CTAACCTCTCA)” the “recombinant barcode read abundance (log10)” value was 0.0593.
In the case of “CTAACCTCTTGGGTTCTAACCTGTTGCTC (site CTAACCTCTGA)”, the “recombinant barcode read abundance (log10)” value is reported as 1.66.
In the case of “CTAACCTCTTGGGTTCTAACCTGTTGCTC (site CTAACCTCTTA)”, the “recombinant barcode read abundance (log10)” value is reported as 0.0437.
For “CTAACCTCTTGGGTTCTAACCTGTTGCTG (site CTAACCTCTAA)”, the “recombinant barcode read abundance (log10)” value was 0.0311.
With “CTAACCTCTTGGGTTCTAACCTGTTGCTG (site CTAACCTCTCA)” the “recombinant barcode read abundance (log10)” value was 1.49.
With “CTAACCTCTTGGGTTCTAACCTGTTGCTG (site CTAACCTCTGA)” the “recombinant barcode read abundance (log10)” value was 0.0869.
For “CTAACCTCTTGGGTTCTAACCTGTTGCTG (site CTAACCTCTTA)”, the “recombinant barcode read abundance (log10)” value was 0.0665.
In the case of “CTAACTACTTGGGTTCTAACCTGTTGCCT (site CTAACCACTTG)”, the “recombinant barcode read abundance (log10)” value is reported as 0.
In the case of “CTAACTACTTGGGTTCTAACCTGTTGCCT (site CTAACTACTAG)”, the “recombinant barcode read abundance (log10)” value is reported as 0.26.
For “CTAACTACTTGGGTTCTAACCTGTTGCGT (site CTAACTACTAC)”, the “recombinant barcode read abundance (log10)” value was 0.181.
For “CTAACTACTTGGGTTCTAACCTGTTGCGT (site GAGGTGCCTCA)”, the “recombinant barcode read abundance (log10)” value was 0.0974.
For “CTAAGAACTTGGGTTCTAACCTGTTGCTT (site CTAAGAACTAA)”, the “recombinant barcode read abundance (log10)” value was 0.254.
In the case of “CTAAGAACTTGGGTTCTAACCTGTTGCTT (site CTAAGAACTAC)”, the “recombinant barcode read abundance (log10)” value is reported as 0.509.
In the case of “CTAAGAACTTGGGTTCTAACCTGTTGCTT (site CTAAGAACTAG)”, the “recombinant barcode read abundance (log10)” value is reported as 0.135.
With “CTAAGAACTTGGGTTCTAACCTGTTGCTT (site CTAAGAACTAT)” the “recombinant barcode read abundance (log10)” value was 0.086.
For “CTAAGAGCTTGGGTTCTAACCTGTTGCAG (site CTAAGAGCTCG)”, the “recombinant barcode read abundance (log10)” value was 0.123.
In the case of “CTAAGAGCTTGGGTTCTAACCTGTTGCAG (site CTAAGAGCTCT)”, the “recombinant barcode read abundance (log10)” value is reported as 1.98.
With “CTAAGCGCTTGGGTTCTAACCTGTTGCCT (site AGTCAGACTGT)” the “recombinant barcode read abundance (log10)” value was 0.463.
With “CTAAGCGCTTGGGTTCTAACCTGTTGCCT (site CTAAGCGCTAG)” the “recombinant barcode read abundance (log10)” value was 0.346.
With “CTAAGCTCTTGGGTTCTAACCTGTTGCCT (site ATAAGCTCTAG)” the “recombinant barcode read abundance (log10)” value was 0.129.
For “CTAAGCTCTTGGGTTCTAACCTGTTGCCT (site CTAAGCTCTAG)”, the “recombinant barcode read abundance (log10)” value was 0.756.
For “CTAAGCTCTTGGGTTCTAACCTGTTGCCT (site GTAAGCTCTAG)”, the “recombinant barcode read abundance (log10)” value was 0.0807.
With “CTAAGCTCTTGGGTTCTAACCTGTTGCCT (site TTAAGCTCTAG)” the “recombinant barcode read abundance (log10)” value was 0.201.
For “CTAAGCTCTTGGGTTCTAACCTGTTGCTC (site CTAAGCTCTAA)”, the “recombinant barcode read abundance (log10)” value was 0.537.
With “CTAAGCTCTTGGGTTCTAACCTGTTGCTC (site CTAAGCTCTCA)” the “recombinant barcode read abundance (log10)” value was 0.0828.
For “CTAAGCTCTTGGGTTCTAACCTGTTGCTC (site CTAAGCTCTGA)”, the “recombinant barcode read abundance (log10)” value was 1.03.
In the case of “CTAAGCTCTTGGGTTCTAACCTGTTGCTC (site CTAAGCTCTTA)”, the “recombinant barcode read abundance (log10)” value is reported as 0.119.
With “CTAAGGTCTTGGGTTCTAACCTGTTGCCT (site CTAAGGTCTAA)” the “recombinant barcode read abundance (log10)” value was 0.745.
In the case of “CTAAGGTCTTGGGTTCTAACCTGTTGCCT (site CTAAGGTCTAC)”, the “recombinant barcode read abundance (log10)” value is reported as 0.122.
In the case of “CTAAGGTCTTGGGTTCTAACCTGTTGCCT (site CTAAGGTCTAG)”, the “recombinant barcode read abundance (log10)” value is reported as 0.923.
For “CTAAGGTCTTGGGTTCTAACCTGTTGCCT (site CTAAGGTCTAT)”, the “recombinant barcode read abundance (log10)” value was 0.222.
For “CTAATACCTTGGGTTCTAACCTGTTGCGT (site CTAATACCTAC)”, the “recombinant barcode read abundance (log10)” value was 1.04.
For “CTAATACCTTGGGTTCTAACCTGTTGCGT (site CTCATACCTAC)”, the “recombinant barcode read abundance (log10)” value was 0.0518.
For “CTAATGTCTTGGGTTCTAACCTGTTGCCT (site CTAATGTCTAG)”, the “recombinant barcode read abundance (log10)” value was 1.65.
For “CTAATGTCTTGGGTTCTAACCTGTTGCCT (site CTAATGTCTTG)”, the “recombinant barcode read abundance (log10)” value was 0.0145.
With “CTAATTGCTTGGGTTCTAACCTGTTGCAA (site CTAATTGCTTT)” the “recombinant barcode read abundance (log10)” value was 0.0868.
With “CTAATTGCTTGGGTTCTAACCTGTTGCAA (site CTACTTGCTTT)” the “recombinant barcode read abundance (log10)” value was 0.0139.
For “CTAATTGCTTGGGTTCTAACCTGTTGCAA (site CTAGTTGCTTT)”, the “recombinant barcode read abundance (log10)” value was 0.344.
In the case of “CTAATTGCTTGGGTTCTAACCTGTTGCAA (site CTATTTGCTTT)”, the “recombinant barcode read abundance (log10)” value is reported as 0.0237.
For “CTACAATCTTGGGTTCTAACCTGTTGCAT (site CTACAATCTAA)”, the “recombinant barcode read abundance (log10)” value was 0.192.
